Entries after “also recorded” stand apart in the source; their conditions may differ. Read-outs that look alike come from different tables or passages of the source.
Assays:
[1] = tested on: antennae of Maruca vitrata females; test: GC-EAD: antennal response of female moths to floral volatiles; settings: volatiles of V. unguiculata flower buds/flowers
Protocol: Headspace collections were initially analyzed by an Agilent Technologies 7890A GC with a flame ionization detector (FID) coupled with an electroantennogram detector (Syntech, Hilversum, The Netherlands) followed the procedures as described by with some modifications. The column was kept at 50°C for 1 min, increased to 200°C at a rate of 10°C/min and then increased to 240°C at a rate of 5°C/min, which was maintained for 5 min. The outlet of the GC column was split with a specific Electronic Pressure Control splitter (Agilent) to obtain the requested flow accuracy in a ratio of 1: 3 for the FID and the cut antenna. Volatile compounds eluting from the GC column were led to the mounted antenna through a heated (230°C) transfer line (TC-02, Syntech, Hilversum, the Netherlands). Each antenna was prepared by cutting both distal and basic segments and was immediately mounted on the holder using conductive gel (Spectra® 360; Parker Laboratories, Fairfield, New Jersey, USA). Each sample was tested five times. Each tested antenna was derived from a different female and used only once. Synthetic chemicals used in the experiments were purchased from Sigma Chemical Co., J&K Scientific Ltd., Tokyo Chemical Industry Co., Sinopharm Chemical Reagent Co. and Aladdin Chemistry Co., respectively.

MvitGOBP2 = MvitGOBP2 (Maruca vitrata, UniProt A0A088MJX9); test: Fluorescence competitive binding assay (1-NPN displacement) with recombinant MvitGOBP2; settings: for binding ability to MvitGOBP2 (in words): among the 17 tested compounds
Sequence of MvitGOBP2 (A0A088MJX9 entry or part of it): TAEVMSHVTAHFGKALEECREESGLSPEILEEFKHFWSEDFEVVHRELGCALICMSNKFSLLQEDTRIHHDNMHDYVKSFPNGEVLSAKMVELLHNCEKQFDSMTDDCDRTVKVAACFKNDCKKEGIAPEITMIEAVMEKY
Protocol: (§1) Fluorescence binding activity was determined as described by previous study. Emission fluorescence spectra were recorded on a Hitachi F-4500 at 25°C in a right angle configuration, with a 1 cm light path quartz cuvette and 5 nm slits for both excitation and emission. The protein was dissolved in 20 mM Tris-HCl buffer, pH 7.4, and ligands were added as 1 mM methanol solutions. To measure the affinity of the fluorescent ligand 1-NPN to MvitGOBP1-2, a 2 μM protein solution in 20 mM Tris-HCl (pH 7.4) was titrated with aliquots of […] ligand in methanol to final concentrations of 2–16 μM. The probe was excited at 337 nm and emission spectra were recorded between 380 and 450 nm. The affinities of the other ligands were measured in competitive binding assays, where a solution of the protein and 1-NPN, both at a concentration of 2 μM, was titrated with 1 mM methanol solutions of each competitor over concentration ranges of 2–24 μM, depending on the ligand. The dissociation constant for 1-NPN and the stoichiometry of binding were obtained by processing the data using Prism software. Dissociation constants of the competitors were calculated from the corresponding IC50 values (concentrations of ligands halving the initial fluorescence value of 1-NPN), using the equation: Ki = [IC50] / (1 + [1-NPN] / K1-NPN), where [1-NPN] is the free concentration of 1-NPN and K1-NPN is the dissociation constant of the complex protein/1-NPN.

MvitGOBP1 = MvitGOBP1 (Maruca vitrata, UniProt A0A0S1S6H9); test: Fluorescence competitive binding assay (1-NPN displacement) with recombinant MvitGOBP1
Sequence of MvitGOBP1 (A0A0S1S6H9 entry or part of it): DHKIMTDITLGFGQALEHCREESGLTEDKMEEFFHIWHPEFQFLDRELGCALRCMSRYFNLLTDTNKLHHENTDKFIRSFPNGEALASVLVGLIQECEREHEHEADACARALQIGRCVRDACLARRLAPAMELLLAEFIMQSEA
Protocol: as §1

Maruca vitrata females = test: Field trapping experiment with volatile-baited Delta-traps; assay type: in vivo; settings: 100 μl of 100 ng/μl in hexane on rubber septa, one week, six traps, Student's t-test
Protocol: Field trap experiments were determined as described by Wang et al. Custom-built Delta-traps with sticky inserts and rubber septa purchased from Pherobio Technology Co. Ltd. were used in the field experiments during the moth flight season in 2014. Traps were suspended from iron stakes and placed approximately 15 m apart. Key components of host-plant volatiles were prepared in hexane, and 100 μl solution (100 ng/μl) were added to rubber septa to be used as lures. Hexane was used as blank control and six trap replicates were used in the field experiment. Traps were checked everyday and the number of female moths per trap was determined for one week. Statistical analyses of trap data were used SPSS (SPSS Inc., Chicago, Illinous, U.S.A.), the significance of the differences between tested group and control group was evaluated by Student's t-test at P < 0.05 and P < 0.01.

M. vitrata females = tested on: M. vitrata females; parameters: method as in earlier work; settings: cited from earlier work
[2] = '-' = exceeded 50 μM for half-maximal inhibition, read-out: MvitGOBP2 IC50 (class symbol)
[3] = dissociation constant calculated from IC50, 1-NPN competition, read-out: MvitGOBP1 Ki
[4] = ligand concentration displacing 50% of fluorescence of MvitGOBP1/1-NPN complex, protein and 1-NPN 2 μM, pH 7.4, 25°C, read-out: MvitGOBP1 IC50
[5] = dissociation constant calculated from IC50, 1-NPN competition, read-out: MvitGOBP2 Ki
[6] = ligand concentration displacing 50% of fluorescence of MvitGOBP2/1-NPN complex, protein and 1-NPN 2 μM, pH 7.4, 25°C, read-out: MvitGOBP2 IC50

Row | Ki (MvitGOBP1; [3]) | IC50 (MvitGOBP1; [4]) | SMILES | EAD/EAG response of female antennae (in words) [1] | Ki (MvitGOBP2; [5]) | IC50 (MvitGOBP2; [6]) | other results
1 |  |  | CCc1ccc(C(C)=O)cc1 [1-(4-ethylphenyl)-ethanone] | responded; also recorded: highest EAD responses |  |  | 
2 | 18 µM | 24.2 µM | CC(=O)c1ccc(C)cc1C [Compound 12, 1-(2,4-Dimethylphenyl)-ethanone] |  |  |  | IC50 (MvitGOBP2; [2]): > 50 µM
3 |  |  | CCC(=O)c1ccc(CC)cc1 [Compound 4-ethylpropiophenone] |  |  |  | female moths caught in traps vs blank lure (Maruca vitrata females): significant difference compared with the blank lure
4 | 28.8 µM | 38.7 µM | CCc1cccc(CC)c1 [Compound 3, 1,3-diethylbenzene] |  | 22.4 µM | 33.8 µM | 
5 | 10.9 µM | 14.6 µM | Oc1cccc2[nH]ccc12 [Compound 15, 1H-indol-4-ol] |  |  |  | IC50 (MvitGOBP2; [2]): > 50 µM
6 | 26.8 µM | 36.1 µM | CCCCCCCCOC(=O)CCC [Compound 9, Butanoic acid octyl ester] |  | 8.5 µM | 12.9 µM | EAD/EAG response of female antennae (in words) ([1]; listed as Butanoic acid octyl ester): EAG response was weaker than other plant volatiles; EAD/EAG response of female antennae (in words) ([1]; listed as butanoic acid octyl ester): responded; binding ability to MvitGOBP2 (in words) (MvitGOBP2): very great bind ability; female moths caught in traps vs blank lure (Maruca vitrata females): significant difference compared with the blank lure
7 |  |  | O=Cc1ccccc1 [Compound 5, Benzaldehyde] | responded |  |  | IC50 (MvitGOBP2): > 50 µM; IC50 (MvitGOBP1): 22.4 µM; Ki (MvitGOBP1): 16.6 µM
8 | 21.2 µM | 28.5 µM | CC(=O)c1ccccc1 [Compound 6, Acetophenone] |  | 26.5 µM | 40 µM | 
9 | 16.8 µM | 22.6 µM | Cc1cc(C)cc(C(C)(C)C)c1 [Compound 17, 1-(1,1-Dimethylethyl)-3,5-dimethylbenzene] |  |  |  | IC50 (MvitGOBP2; [2]): > 50 µM
10 | 19.2 µM | 25.8 µM | CCc1ccc(CC)cc1 [Compound 4, 1,4-diethylbenzene] |  | 27.1 µM | 40.9 µM | 
11 |  |  | CC(=O)c1ccc(C)cc1C [1-(2,4-Dimethylphenyl)-ethanone] | responded |  |  | 
12 |  |  | Oc1cccc2[nH]ccc12 [Compound 1H-indol-4-ol] | responded |  |  | attraction of females in wind tunnel (in words) (M. vitrata females): significantly attracted many M. vitrata females; female moths caught in traps vs blank lure (Maruca vitrata females): significant difference compared with the blank lure
13 | 14.2 µM | 19.1 µM | CCc1ccc(C=O)cc1 [Compound 8, 4-ethylbenzaldehyde] |  | 33.1 µM | 50 µM | 
14 |  |  | O=Cc1ccccc1O [Compound 7, 2-hydroxybenzaldehyde] |  |  |  | IC50 (MvitGOBP2): 41.9 µM; Ki (MvitGOBP2): 22.9 µM; IC50 (MvitGOBP1): 20.8 µM; Ki (MvitGOBP1): 15.5 µM
15 |  |  | CC(=O)c1ccc(C(C)=O)cc1 [Compound 16, 1,4-diacetyl benzene] |  |  |  | IC50 (MvitGOBP2): 49.6 µM; Ki (MvitGOBP2): 32.9 µM; IC50 (MvitGOBP1): 30.5 µM; Ki (MvitGOBP1): 22.7 µM
16 |  |  | CCc1ccc(C=O)cc1 [Compound 4-ethylbenzaldehyde] | responded |  |  | 
17 |  |  | CCc1ccc(C(C)=O)cc1 [Compound 10, 1-(4-ethylphenyl)-ethanone] |  |  |  | IC50 (MvitGOBP2): 45 µM; Ki (MvitGOBP2): 29.8 µM; IC50 (MvitGOBP1): 22.9 µM; Ki (MvitGOBP1): 17 µM

Row | SMILES | Ki (MvitGOBP1; [3]) | IC50 (MvitGOBP1; [4]) | EAD/EAG response of female antennae (in words) [1] | Ki (MvitGOBP2; [5]) | IC50 (MvitGOBP2; [6]) | other results
18 | CCC(=O)c1ccc(CC)cc1 [Compound 13, 4-ethylpropiophenone] | 15.2 µM | 20.4 µM |  | 26 µM | 39.3 µM | 
19 | CCCCOC(=O)CCC [Compound 1, Butanoic acid butyl ester] | 12.5 µM | 16.8 µM | responded | 29.7 µM | 44.8 µM | female moths caught in traps vs blank lure (Maruca vitrata females): significant difference compared with the blank lure
20 | C=C(C)[C@H]1CC=C(C)CC1 [Compound 2, Limonene] | 13.8 µM | 18.6 µM | responded | 29.2 µM | 44.1 µM | attraction of females in wind tunnel (in words) (M. vitrata females): significantly attracted many M. vitrata females; also recorded: strong behavioral activity; female moths caught in traps vs blank lure (Maruca vitrata females; listed as Limonene): most female moths were trapped; female moths caught in traps vs blank lure (Maruca vitrata females; listed as limonene): significant difference compared with the blank lure; also recorded: highest trapping effect
21 | CC(C=O)Cc1ccccc1 (centres unmarked) [Compound 11, 2-methyl-3-phenylpropanal] | 17.8 µM | 23.9 µM | responded; also recorded: high electrophysiological responses | 3.81 µM | 6.98 µM | binding ability to MvitGOBP2 (in words) (MvitGOBP2): highest bind ability; attraction of females in wind tunnel (in words) (M. vitrata females): attract significantly M. vitrata females; female moths caught in traps vs blank lure (Maruca vitrata females): significant difference compared with the blank lure
22 | CC(=O)c1ccc(O)c(C)c1 [Compound 14, 4-hydroxy-3-methylacetophenone] | 18.3 µM | 24.6 µM |  | 17.1 µM | 25.8 µM | 
